This is an account of results in patent US12686667B2, “Methods and compositions for gamma-glutamyl cycle modulation” (CANCER RESEARCH TECHNOLOGIES LLC, priority 2013, dated 2026).

The structures appear in SMILES notation.

The LD50 is the dose expected to kill half of the subjects tested. A higher LD50 goes with lower toxicity.

One data set has as its system tumor. Kind of data set: Anti-cancer activity of (L) versus (D) conformation compounds in animal models and compassionate use (summary statement). It is filed as in vivo. The settings on record: animal models and compassionate use treatment of human subjects. From the text: However, in contrast to D-penicillamine, the L-penicillamine stereoisomer is toxic, and has not been approved as a drug. […] Moreover, when the inventors compared the relative activities, the (L) conformation compounds of this disclosure appeared to be at least 2× as active as the corresponding racemate, due to the improved stereospecificity in the enzymatic catalysis of 5-oxoproline by 5 oxoprolinase.

Data set [1] can be described thus: LD50 toxicity study on Balb C mice. It counts as in vivo. The settings on record: mouse, in vivo. As to the method: LD50 data was measured, and exemplary gamma-glutamyl cycle inhibitor's toxicity study was conducted on Balb C Mice. A conjugate of L-penicillamine and methyl glyoxal (MGPA) was adminstered at about 4500 mg/kg ip, 5000 mg/kg oral. A conjugate of L-penicillamine and para-methoxyphenyl (PMPA) was administered at 5250 mg/kg ip, 5500 mg/kg oral; and a conjugate of L-penicillamine and citronellal (CNPA) was administered at 3250 mg/kg ip, 4500 mg/kg oral.

With `COc1ccc(C2NC(C(=O)O)C(C)(C)S2)cc1` (stereo not drawn) [(D) stereoisomer], the “anti-tumor / anti-cancer activity” value in the data set with tumor is listed as “no activity”.

`COc1ccc(C2N[C@@H](C(=O)O)C(C)(C)S2)cc1` (stereo partly shown) [PMPA]: the LD50 in data set [1] (5250 mg/kg, ip) was determined as 5250 mg/kg; in data set [1] (5500 mg/kg, oral), 5500 mg/kg. For the same compound, the “anti-tumor / anti-cancer activity” value in the data set on tumor is listed as “potent anti-tumor activity”.
